{"source": "paper PMC3187749", "about": "“Discovery of Diverse Small Molecule Chemotypes with Cell-Based PKD1 Inhibitory Activity” (PLoS ONE, 2011)", "key": {"[1]": {"tested_on": "CDK7", "test": "IMAP-based CDK7 counter screen", "type": "biochemical", "conditions": "concentrations up to 50 µM", "excerpt": "(§1) It was also gratifying that, in general, our novel cell active PKD1 inhibitors appeared to be less promiscuous than PKD1 inhibitors having minimal to no cellular PKD1 inhibitory activity (Table 1). For example, CIDs 755673 and 1893668 display additional confirmed activity in six and seven, respectively, PubChem bioassays while CID 2011756 has confirmed activity in only one additional PubChem bioassay. […] In contrast, the remaining chemotypes registered as confirmed actives in 2–43 additional bioassays (Table 1). Additional chemical similarity searching, focusing on our four novel cell-active PKD1 inhibitory chemotypes, using MetaDrug also supports a comparative lack of promiscuity of these compounds."}, "[2]": {"tested_on": "PLK1", "test": "IMAP-based PLK1 counter screen", "type": "biochemical", "conditions": "concentrations up to 50 µM", "excerpt": "as §1"}, "[3]": {"molecular_target": "T1, endogenous PKD1 (Ser916 phosphorylation) in LNCaP prostate cancer cells (Homo sapiens, UniProt Q15139)", "T1 construct": "phosphorylation of endogenously expressed PKD1 Ser^916; endogenous in cells; host or cells: LNCaP prostate cancer cells", "T1 sequence (Q15139 1-912)": "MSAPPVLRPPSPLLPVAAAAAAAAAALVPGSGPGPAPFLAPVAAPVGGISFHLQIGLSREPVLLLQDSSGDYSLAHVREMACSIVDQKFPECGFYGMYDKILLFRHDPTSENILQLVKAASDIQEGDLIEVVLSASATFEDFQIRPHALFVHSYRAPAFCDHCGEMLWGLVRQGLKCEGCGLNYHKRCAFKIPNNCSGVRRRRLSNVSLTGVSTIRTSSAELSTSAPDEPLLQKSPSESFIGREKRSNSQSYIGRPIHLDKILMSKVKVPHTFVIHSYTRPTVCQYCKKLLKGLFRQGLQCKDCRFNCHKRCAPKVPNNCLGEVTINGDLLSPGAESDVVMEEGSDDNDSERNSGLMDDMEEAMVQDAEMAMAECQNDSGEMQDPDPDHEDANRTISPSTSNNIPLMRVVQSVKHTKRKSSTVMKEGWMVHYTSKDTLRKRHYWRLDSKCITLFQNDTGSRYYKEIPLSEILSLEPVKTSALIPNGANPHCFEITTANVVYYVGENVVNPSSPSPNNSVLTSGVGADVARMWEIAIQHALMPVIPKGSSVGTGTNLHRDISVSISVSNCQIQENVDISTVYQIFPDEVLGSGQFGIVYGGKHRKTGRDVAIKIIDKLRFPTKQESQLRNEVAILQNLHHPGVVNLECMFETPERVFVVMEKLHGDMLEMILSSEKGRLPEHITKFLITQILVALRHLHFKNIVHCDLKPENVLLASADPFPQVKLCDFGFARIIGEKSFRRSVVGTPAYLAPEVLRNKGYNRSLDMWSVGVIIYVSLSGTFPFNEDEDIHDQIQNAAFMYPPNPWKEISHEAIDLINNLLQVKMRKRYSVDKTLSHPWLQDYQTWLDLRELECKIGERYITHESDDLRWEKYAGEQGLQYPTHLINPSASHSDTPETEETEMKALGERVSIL", "test": "Western blot of PMA-induced phospho-Ser916-PKD1 in LNCaP cells", "type": "cell-based", "protocol": "Briefly, prostate cancer cells (LNCaP) were exposed to test compounds. Cells were lysed in buffer (200 mM Tris-HCl, pH 7.4, 100 µM 4-(2-aminoethyl) benzenesulfonyl fluoride, 1 mM EGTA, and 1% Triton X-100) and cell lysates were subjected to SDS-PAGE then electrotransferred to nitrocellulose membranes. Membranes were blocked with 5% nonfat milk in Tris-buffered saline. Membranes were probed with a primary antibody then followed by a secondary anti-mouse or anti-rabbit secondary antibody conjugated to horseradish peroxidase (1∶1000, Bio-Rad). Bands were visualized by the enhanced chemiluminescence Western blotting detection system (Amersham Biosciences). The primary antibodies included p-S916-PKD1 antibody (Millipore) and GAPDH (Enzo Life Sciences, Plymouth Meeting, PA).\n[…] Whole cell lysates were immunoblotted for phosphorylated Ser^916-PKD1 with GAPDH serving as a loading control."}, "[4]": {"tested_on": "AKT", "test": "IMAP-based AKT counter screen", "type": "biochemical", "conditions": "concentrations up to 50 µM", "excerpt": "as §1"}, "[5]": {"molecular_target": "T2, recombinant human PKD1 (Homo sapiens, UniProt Q15139)", "T2 construct": "His; purchased Millipore (Billerica, MA)", "T2 sequence (Q15139 1-912)": "T1 sequence (Q15139 1-912)", "test": "ATP competition studies (radiometric PKD1 assay, Michaelis-Menten/Lineweaver-Burk)", "type": "biochemical", "conditions": "PKD1, ATP 12.5–1000 µM", "protocol": "For ATP competition studies, recombinant human PKD1 (1 ng/µL) and Syntide-2 substrate peptide (200 ng/µl) in kinase buffer were incubated with a concentration range of test compound. Kinase reactions were initiated with a concentration range of cold ATP (12.5–1000 µM) supplemented with 1.0 µCi γ-^33P-ATP (Perkin Elmer) and processed as described above. Enzyme inhibition was analyzed and visualized using the Michaelis-Menten and Lineweaver-Burk functions of GraphPad Prism 5.0."}}, "data": [{"smiles": "O=C(Nc1ccc(CN2CCOCC2)cc1)c1ccc(-c2cccc(Cl)c2)o1", "note": "[CID 2011756, 5-(3-chlorophenyl)-N-[4-(morpholin-4-ylmethyl)phenyl]furan-2-carboxamide]", "values": [{"measurement": "CDK7 kinase inhibition", "setting": "[1]", "result": "no kinase inhibition"}, {"measurement": "PLK1 kinase inhibition", "setting": "[2]", "result": "no kinase inhibition"}, {"measurement": "EC50", "setting": "[3]; LNCaP cells, PMA stimulation, n = 3, read-out: Cellular EC50 (phospho-Ser916-PKD1)", "result": "10 ± 0.7", "unit": "µM"}, {"measurement": "Concentration dependence of inhibition of PMA-induced endogenous PKD1 activity", "setting": "[3]; LNCaP cells, Western blot", "result": "concentration-dependent inhibition"}, {"measurement": "inhibition at 50 µM", "setting": "[3]; LNCaP, read-out: Inhibition of phosphorylation of Ser916-PKD1", "result": "> 50", "unit": "%"}, {"measurement": "AKT kinase inhibition", "setting": "[4]", "result": "no kinase inhibition"}, {"measurement": "Mechanism of Action (with respect to ATP)", "setting": "[5]", "result": "ATP competitive"}]}]}
